This passage reports IC90 results from patent US20230012368A1 (Hoffmann-La Roche Inc., priority 2018, published 2023).

Structures can show the parent of a compound that is named as a salt.

The first test relates to Acinetobacter baumannii ATCC 17978. Put plainly: Antimicrobial susceptibility testing: 90% growth inhibitory concentration (IC90) determination. The class given is cell-based. The conditions noted are these: 90% growth inhibitory concentration; Acinetobacter baumannii ATCC17978; Iso-Sensitest broth, OD 600 nm over 16h; read-out: ATCC17978 IC90. Here is the method:
Antimicrobial Susceptibility Testing:
90% Growth Inhibitory Concentration (IC90) Determination
The in vitro antimicrobial activity of the compounds was determined according to the following procedure:
The assay used a 10-points Iso-Sensitest broth medium to measure quantitatively the in vitro activity of the compounds against Acinetobacter baumannii ATCC 17978 and Acinetobacter baumannii ATCC 17961.
Stock compounds in DMSO were serially twofold diluted (e.g. range from 50 to 0.097 μM final concentration) in 384 wells microtiter plates and inoculated with 49 μl the bacterial suspension in Iso-Sensitest medium to have a final cell concentration of ˜5×10^(5) CFU/ml in a final volume/well of 50 ul/well. Microtiter plates were incubated at 35±2° C.
Bacterial cell growth was determined with the measurement of optical density at λ=600 nm each 20 minutes over a time course of 16h. Growth inhibition was calculated during the logarithmic growth of the bacterial cells with determination of the concentration inhibiting 50% (IC50) and 90% (IC90) of the growth.
Table 1 provides the 90% growth inhibitory concentrations (IC90) in micromoles per liter of the compounds of present invention obtained against the strain Acinetobacter baumannii ATCC17978 and Acinetobacter baumannii ATCC17961.
Regarding “4-((3-(4- (difluoromethoxy) phenyl)imidazo[1,2- a]pyrazin-8- yl)amino)-N-methyl- 2- (trifluoromethyl) benzamide [Example 53]”, the IC90 was 240 nM.

Consider `CCc1cc(Nc2nccn3c(-c4ccc(OC)c(F)c4F)cnc23)ccc1C(=O)NCC(O)CNC(=O)[C@@H](N)CCCNC(=N)N` (mixture of isomers) [Example 405, rac-N-(3-((R)-2-amino-5-guanidinopentanamido)-2-hydroxypropyl)-4-((3-(2,3-difluoro-4-methoxyphenyl)imidazo[1,2-a]pyrazin-8-yl)amino)-2-ethylbenzamide diformate], for which the IC90 was 360 nM.

For the compound `CCc1cc(Nc2nccn3c(-c4ccc(OC)c(F)c4F)cnc23)ccc1C(=O)NCC(C)CNC(=O)[C@@H](N)CCCNC(=N)N` (mixture of isomers) [Example 406, rac-N-(3-((R)-2-amino-5-guanidinopentanamido)-2-methylpropyl)-4-((3-(2,3-difluoro-4-methoxyphenyl)imidazo[1,2-a]pyrazin-8-yl)amino)-2-ethylbenzamide diformate], the IC90 was found to be 240 nM.

Still in this test, the particulars now being: Acinetobacter baumannii, ATCC17978, 16 h, 90% growth inhibitory concentration; Acinetobacter baumannii ATCC17978; Iso-Sensitest broth, OD 600 nm over 16h; read-out: ATCC17978 IC90.
As for `CCc1cc(Nc2nccn3c(-c4ccc(OC)c(F)c4F)cnc23)ccc1C(=O)NCCCNC(=O)C(CNC(=N)N)NC(=O)[C@@H](N)CCC(=O)O` (mixture of isomers) [Example 155, (4S)-4-Amino-5-((1-((3-(4-((3-(2,3-difluoro-4-methoxyphenyl)imidazo[1,2-a]pyrazin-8-yl)amino)-2-ethylbenzamido)propyl)amino)-3-guanidino-1-oxopropan-2-yl)amino)-5-oxopentanoic acid trihydrochloride (Epimers 1:1)], the IC90 worked out at 340 nM.

On to `CCc1cc(Nc2nccn3c(-c4ccc(OC)c(F)c4F)cnc23)ccc1C(=O)NCC(O)CNC(=O)[C@@H](N)CN` (mixture of isomers) [Example 415, N-[3-[[(2S)-2,3-diaminopropanoyl]amino]-2-hydroxypropyl]-4-[[3-(2,3-difluoro-4-methoxyphenyl)imidazo[1,2-a]pyrazin-8-yl]amino]-2-ethylbenzamide;dihydrochlo-ride], for which the IC90 came out at 520 nM. The same measure, in the same setting: next, `CCc1cc(Nc2nccn3c(-c4ccc(OC)c(F)c4F)cnc23)ccc1C(=O)NCCNC(=O)C(CNC(=N)N)NC(=O)[C@@H](N)CCC(=O)O` (mixture of isomers) [Example 461, (4S)-4-amino-5-((1-((2-(4-((3-(2,3-difluoro-4-methoxyphenyl)imidazo[1,2-a]pyrazin-8-yl)amino)-2-ethylbenzamido)ethyl)amino)-3-guanidino-1-oxopropan-2-yl)amino)-5-oxopentanoic acid trihydrochloride]: 480 nM. Consider `CCc1cc(Nc2nccn3c(-c4ccc(OC)c(F)c4F)cnc23)ccc1C(=O)NCC(C)CNC(=O)[C@@H](N)CCNC(=N)N` (mixture of isomers) [Example 401, rac-N-(3-((R)-2-amino-4-guanidinobutanamido)-2-methylpropyl)-4-((3-(2,3-difluoro-4-methoxyphenyl)imidazo[1,2-a]pyrazin-8-yl)amino)-2-ethylbenzamide diformate], for which the IC90 was determined as 220 nM. On to `CCc1cc(Nc2nccn3c(-c4ccc(OC)c(F)c4F)cnc23)ccc1C(=O)NCC(C)CNC(=O)[C@@H](N)CNC(=N)N` (mixture of isomers) [Example 408, rac-N-(3-((R)-2-amino-3-guanidinopropanamido)-2-methylpropyl)-4-((3-(2,3-difluoro-4-methoxyphenyl)imidazo[1,2-a]pyrazin-8-yl)amino)-2-ethylbenzamide diformate], for which the IC90 was determined as 410 nM.

For `CCc1cc(Nc2nccn3c(-c4ccc(OC)c(F)c4F)cnc23)ccc1C(=O)NCC(O)CNC(=O)[C@@H](N)CCCCN` (mixture of isomers) [Example 412, rac-N-(3-((R)-2,6-diaminohexanamido)-2-hydroxypropyl)-4-((3-(2,3-difluoro-4-methoxyphenyl)imidazo[1,2-a]pyrazin-8-yl)amino)-2-ethylbenzamide dihydrochloride], the IC90 worked out at 770 nM. The same measure, in the same setting: the result for `CCc1cc(Nc2nccn3c(-c4ccc(OC)c(F)c4F)cnc23)ccc1C(=O)NCC(O)CNC(=O)[C@@H](N)CCCN` (mixture of isomers) [Example 413, rac-N-(3-((R)-2,5-diaminopentanamido)-2-hydroxypropyl)-4-((3-(2,3-difluoro-4-methoxyphenyl)imidazo[1,2-a]pyrazin-8-yl)amino)-2-ethylbenzamide dihydrochloride] reads 470 nM; that for `CCc1cc(Nc2nccn3c(-c4ccc(OC)c(F)c4F)cnc23)ccc1C(=O)NCC(O)CNC(=O)[C@@H](N)CCN` (mixture of isomers) [Example 414, rac-N-(3-((R)-2,4-diaminobutanamido)-2-hydroxypropyl)-4-((3-(2,3-difluoro-4-methoxyphenyl)imidazo[1,2-a]pyrazin-8-yl)amino)-2-ethylbenzamide dihydrochloride], 390 nM. As to `CCc1cc(Nc2nccn3c(-c4ccc(OC)c(F)c4F)cnc23)ccc1C(=O)NCC(O)CNC(=O)[C@@H](N)CCNC(=N)N` (mixture of isomers) [Example 416, rac-N-(3-((R)-2-amino-4-guanidinobutanamido)-2-hydroxypropyl)-4-((3-(2,3-difluoro-4-methoxyphenyl)imidazo[1,2-a]pyrazin-8-yl)amino)-2-ethylbenzamide diformate], the IC90 turned out to be 240 nM. Same read-out and setting: the result for `CCc1cc(Nc2nccn3c(-c4ccc(OCc5cc[nH]n5)c(F)c4F)cnc23)ccc1C(=O)N[C@@H](C)CN` (racemic) [Example 485, rac-(R)-4-((3-(4-((1H-pyrazol-3-yl)methoxy)-2,3-difluorophenyl)imidazo[1,2-a]pyrazin-8-yl)amino)-N-(1-aminopropan-2-yl)-2-ethylbenzamide] reads 800 nM; that for `CCc1cc(Nc2nccn3c(-c4ccc(OC(F)F)c(F)c4F)cnc23)ccc1C(=O)N[C@@H](C)CNC(=O)C1CCNCC1` (racemic) [Example 552, rac-(R)-N-(2-(4-((3-(4-(difluoromethoxy)-2,3-difluorophenyl)imidazo[1,2-a]pyrazin-8-yl)amino)-2-ethylbenzamido)propyl)piper-idine-4-carboxamide formate], 210 nM; that for `CCc1cc(Nc2nccn3c(-c4ccc(OC(F)F)c(F)c4F)cnc23)ccc1C(=O)N[C@@H](C)CNC(=O)C1CCN(CC2CNC2)CC1` (racemic) [Example 553, rac-(R)-1-(azetidin-3-ylmethyl)-N-(2-(4-((3-(4-(difluoromethoxy)-2,3-difluorophenyl)imidazo[1,2-a]pyrazin-8-yl)amino)-2-ethylbenzamido)propyl)piper-idine-4-carboxamide formate], 260 nM. Regarding `COc1ccc(-c2cnc3c(Nc4ccc(C(=O)N(C)C)c(C)c4)nccn23)c(F)c1F` [Example 1, 4-((3-(2,3-difluoro-4-methoxyphenyl)imidazo[1,2-a]pyrazin-8-yl)amino)-N,N,2-trimethylbenzamide], the IC90 worked out at 120 nM. Same read-out and setting: the result for `COc1ccc(-c2cnc3c(Nc4ccc(C(=O)NCCCN5CCNC(C(=O)O)C5)c(C)c4)nccn23)cc1F` (centres unmarked) [Example 2, 4-(3-(4-((3-(3-fluoro-4-methoxyphenyl)imidazo [1,2-a]pyrazin-8-yl)amino)-2-methylbenzamido)propyl) piperazine-2-carboxylic acid] reads 4600 nM.
